One test concerns caspase-3. Briefly: Caspase-3 level in HepG2 cells. It counts as cell-based, human.
Test [1] addresses VEGFR-2 (Homo sapiens, UniProt P35968). The test is described as follows: In vitro VEGFR-2 inhibition. It counts as biochemical.
A further test has as its system HepG2. The test is described as follows: MTT anti-proliferative assay on HepG2. The note with it: Homo sapiens, HepG2, read-out: In vitro cytotoxicity IC50 HepG2. (Tetrazolium assays rely on reduction of a dye to a coloured formazan, in cell work by metabolically active cells.)
The test system of test [2] is HepG2 cells. Briefly: Wound healing. It counts as cell-based, human.
The subject of test [3] is HepG2 cells. Briefly: Apoptosis assay, Annexin V-FITC/PI flow cytometry. It counts as cell-based, human. (In general: Flow cytometry measures light scatter and fluorescence of single cells or particles in a stream.)
For a further test, the system named is MCF-7. Briefly: MTT anti-proliferative assay on MCF-7. The settings on record: Homo sapiens, MCF7, read-out: In vitro cytotoxicity IC50 MCF-7.
The next test has as its system Vero cells. The test is described as follows: Safety assay on non-cancerous Vero cells. It counts as cell-based.
The subject of test [4] is VEGFR-2. The test is described as follows: MM-GBSA binding free energy and decomposition. The settings on record: 15a versus sorafenib.
The test system of a further test is caspase-9. Briefly: Caspase-9 level in HepG2 cells. Type of test: cell-based, human.
[5] abbreviates: HepG2, 0.76 μM, control HepG2 = 1.

Chain of VEGFR-2 (Homo sapiens, UniProt P35968) (P35968 20-1356): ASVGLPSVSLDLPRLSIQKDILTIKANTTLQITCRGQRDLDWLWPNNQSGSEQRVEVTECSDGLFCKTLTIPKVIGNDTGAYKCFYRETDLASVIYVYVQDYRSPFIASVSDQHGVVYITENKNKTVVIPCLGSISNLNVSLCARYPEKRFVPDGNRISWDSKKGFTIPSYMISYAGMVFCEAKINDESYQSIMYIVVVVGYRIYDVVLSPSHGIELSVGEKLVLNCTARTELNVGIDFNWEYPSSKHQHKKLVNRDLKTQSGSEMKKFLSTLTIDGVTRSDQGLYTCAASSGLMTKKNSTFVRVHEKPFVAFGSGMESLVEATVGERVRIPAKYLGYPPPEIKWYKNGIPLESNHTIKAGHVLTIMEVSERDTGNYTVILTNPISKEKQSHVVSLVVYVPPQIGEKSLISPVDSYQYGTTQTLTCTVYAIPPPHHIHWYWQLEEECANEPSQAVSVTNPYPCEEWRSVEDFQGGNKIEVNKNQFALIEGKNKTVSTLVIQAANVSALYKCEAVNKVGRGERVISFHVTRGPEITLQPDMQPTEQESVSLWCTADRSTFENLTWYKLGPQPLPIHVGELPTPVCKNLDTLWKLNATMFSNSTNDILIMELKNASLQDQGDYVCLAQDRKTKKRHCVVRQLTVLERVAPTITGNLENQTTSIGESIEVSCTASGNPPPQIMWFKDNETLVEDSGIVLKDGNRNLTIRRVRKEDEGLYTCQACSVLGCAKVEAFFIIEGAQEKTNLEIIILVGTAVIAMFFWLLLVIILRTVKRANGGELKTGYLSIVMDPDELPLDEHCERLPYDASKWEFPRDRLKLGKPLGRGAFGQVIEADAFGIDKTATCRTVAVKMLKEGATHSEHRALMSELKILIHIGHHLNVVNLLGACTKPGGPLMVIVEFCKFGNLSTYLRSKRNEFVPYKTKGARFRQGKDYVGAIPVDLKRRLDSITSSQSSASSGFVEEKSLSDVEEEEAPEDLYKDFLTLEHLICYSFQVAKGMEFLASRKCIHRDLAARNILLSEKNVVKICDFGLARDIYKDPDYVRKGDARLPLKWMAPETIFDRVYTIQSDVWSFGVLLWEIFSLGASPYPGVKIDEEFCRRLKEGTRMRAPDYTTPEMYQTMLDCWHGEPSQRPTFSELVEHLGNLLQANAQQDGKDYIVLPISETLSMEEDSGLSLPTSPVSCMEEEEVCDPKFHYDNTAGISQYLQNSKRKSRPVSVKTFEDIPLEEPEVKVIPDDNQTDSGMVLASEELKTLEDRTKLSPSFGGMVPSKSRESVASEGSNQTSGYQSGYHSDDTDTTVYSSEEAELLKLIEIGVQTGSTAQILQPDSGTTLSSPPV

Consider `CC(=NNC(=O)c1cccc(Br)c1)c1ccc(NC(=O)Cn2c(=O)c3c(ncn3C)n(C)c2=O)cc1` [Compound 15a, N-(4-(1-(2-(3-Bromobenzoyl)hydrazono)ethyl)phenyl)-2-(3,7-dimethyl-2,6-dioxo-2,3,6,7-tetrahydro-1H-purin-1-yl)acetamide], for which, in the test on caspase-3 (HepG2, 0.76 μM (IC50 value)), the “increase of caspase-3 level compared to control” value is listed as 3.45 fold. Also, in the test on caspase-3 (setting [5]), the “Protein expression Caspase-3” value came out at 3.451. Moreover, the IC50 on VEGFR-2 [1] came out at 239 nM; with HepG2, 760 ± 10 nM; in the test on MCF-7 it was 1080 ± 20 nM; in the test on Vero cells (Chlorocebus sabaeus, Vero, read-out: IC50 against Vero cells) it was 75200 nM. For the same compound, the “decrease of scratch width” value with HepG2 cells [2] (HepG2, within 48 hours, untreated 65.9%) was 34.17%. Also, the “At 0 h Area” value in the test on HepG2 cells [2] (HepG2 scratch, 0 h) is 1000.667. In addition, in the test on HepG2 cells [2] (HepG2 scratch, 0 h), the “At 0 h Width” value was determined as 999.7462. In the test on HepG2 cells [2] (HepG2 scratch, 48 h, control 339.5385), the “At 48 h Width” value amounted to 657.7792. For the same compound, the “At 48 h Area” value in the test on HepG2 cells [2] (HepG2 scratch, 48 h, control 340.5) was determined as 658.6667. Moreover, the RM in the test with HepG2 cells [2] (HepG2 scratch, after 48 hours, control 13.74681) was 7.124 μm. Moreover, in the test on HepG2 cells [2] (HepG2 scratch, after 48 hours, control 65.96135), the Wound closure is given as 34.18 % μm^2. Further, in the test on HepG2 cells [3] (HepG2, 0.76 µM for 72 h, control 0.13), the “Apoptosis Late” value was 12.17. In the test with HepG2 cells [3] (HepG2, 0.76 µM for 72 h, control 0.71), the “Apoptosis Early” value worked out at 9.63. This compound displayed a Necrosis in the test with HepG2 cells [3] (HepG2, 0.76 µM for 72 h, control 2.22) of 7.69. Also, the “Apoptosis Total” value in the test on HepG2 cells [3] (HepG2, 0.76 µM for 72 h, control 3.06) is 29.49. The “proportion of HepG2 cells in late-stage apoptosis” value with HepG2 cells [3] (HepG2, from 0.71% in control) stood at 9.63%. For the same compound, in the test with HepG2 cells [3] (HepG2, from 3.06% in control), the “proportion of HepG2 cells in early-stage apoptosis” value is 29.49%. For the same compound, the “selectivity index against HepG2” value in the test with Vero cells (based on Vero IC50 versus HepG2 IC50) came to 98.97. For the same compound, the “selectivity index against MCF7” value in the test with Vero cells (based on Vero IC50 versus MCF-7 IC50) is given as 69.64. In addition, the “MM-GBSA binding energy smaller than that of the reference compound by” value in the test on VEGFR-2 [4] came out at 8.5 kcal/mol. Besides, in the test on caspase-9 (HepG2, 0.76 μM (IC50 value)), the “increase of caspase-9 level compared to control” value came to 2.37 fold. In the test with caspase-9 (setting [5]), the “Protein expression Caspase-9” value was found to be 2.378.
In the case of `CC(=NNC(=O)c1ccccc1Cl)c1ccc(NC(=O)Cn2c(=O)c3c(ncn3C)n(C)c2=O)cc1` [Compound 15b, N-(4-(1-(2-(2-Chlorobenzoyl)hydrazono)ethyl)phenyl)-2-(3,7-dimethyl-2,6-dioxo-2,3,6,7-tetrahydro-1H-purin-1-yl)acetamide], the half-maximal inhibitory concentration (IC50) in the test with HepG2 was 780 ± 20 nM; with MCF-7 it was 650 ± 10 nM.
In the case of `CC(=NNC(=O)c1cccc(Cl)c1)c1cccc(NC(=O)Cn2c(=O)c3c(ncn3C)n(C)c2=O)c1` [Compound 16, N-(3-(1-(2-(3-Chlorobenzoyl)hydrazono)ethyl)phenyl)-2-(3,7-dimethyl-2,6-dioxo-2,3,6,7-tetrahydro-1H-purin-1-yl)acetamide], the IC50 in the test on HepG2 was found to be 1230 ± 30 nM; in the test with MCF-7 it was 2470 ± 40 nM.
`CC(=NNC(=O)c1cccnc1)c1ccc(NC(=O)Cn2c(=O)c3c(ncn3C)n(C)c2=O)cc1` [Compound 17, 2-(3,7-Dimethyl-2,6-dioxo-2,3,6,7-tetrahydro-1H-purin-1-yl)-N-(4-(1-(2-nicotinoylhydrazono)ethyl)phenyl)acetamide]: the values for the IC50 with HepG2 and in the test on MCF-7 were 1050 ± 10 nM and 800 ± 10 nM, respectively.
For the compound `CNC(=O)c1cc(Oc2ccc(NC(=O)Nc3ccc(Cl)c(C(F)(F)F)c3)cc2)ccn1` [Sorafenib, reference compound], the IC50 in the test on HepG2 came to 2240 ± 60 nM; with MCF-7, 3170 ± 10 nM.

A word on the IC50: it is the midpoint of a concentration-inhibition curve.

(Values after publication PMC10395314 (RSC Advances, 2023).)
